Measurements published in patent US20160168155A1, “POLYMORPH OF SYK INHIBITORS” (GILEAD CONNECTICUT, INC., priority 2013, published 2016).

Legend:
[1] = Hygroscopicity by dynamic vapor sorption (Q5000SA), Example 6A; format: physicochemical; settings: for hygroscopicity: 0 to 90% RH
Experimental: Hygroscopicity of polymorph Form 3 and polymorph Form 7 at 25° C. was determined by dynamic vapor sorption (DVS) using an automated vapor sorption balance (Q5000SA; TA instruments, New Castle, Del.). Hygroscopicity was studied as a function of relative humidity (RH) over the range of 0 to 90%. Approximately 10 mg of solid sample was placed directly onto the 13 mm quartz DVS sample cup and equilibrated at 0% relative humidity (RH) until a constant weight was achieved. After equilibration, the RH was increased in increments of 10% to reach 90%, and the water sorption was monitored. For desorption, the relative humidity was deceased in a similar manner to accomplish a full sorption/desorption cycle.
For all experiments, the instrument was operated in dm/dt mode (mass variation over time) to determine when equilibrium was reached. A fixed dm/dt value of 0.0010% min^−1 was selected for all RH segments. A maximum stage of 360 minutes and a minimum stage of 60 minutes were selected for these experiments.

[2] = Moisture sorption isotherms (Hiden IGASorp / SMS DVS Intrinsic), Example 6B; format: physicochemical; settings: for water uptake up to 90% RH / hygroscopicity: 25° C.; for hygroscopicity: sorption isotherm, 0-90% RH
Experimental: Sorption isotherms were obtained using a Hiden IGASorp moisture sorption analyser, controlled by CFRSorp software. The sample temperature was maintained at 25° C. by a Huber re-circulating water bath. The humidity was controlled by mixing streams of dry and wet nitrogen, with a total flow rate of 250 ml/min. The relative humidity (RH) was measured by a calibrated Vaisala RH probe (dynamic range of 0-95% RH), located near the sample. The weight change, (mass relaxation) of the sample as a function of % RH was constantly monitored by the microbalance (accuracy ±0.001 mg).
10-20 mg of sample was placed in a tared mesh stainless steel basket under ambient conditions. The sample was loaded and unloaded at 40% RH and 25° C. (typical room conditions).
A moisture sorption isotherm was performed as outlined in Table 1 below (2 scans giving 1 complete cycle). The standard isotherm was performed at 25° C. at 10% RH intervals over a 0-90% RH range.
The software uses a least squares minimization procedure together with a model of the mass relaxation, to predict an asymptotic value. The measured mass relaxation value must be within 5% of that predicted by the software, before the next % RH value is selected. The minimum equilibration time was set to 1 hour and the maximum to 4 hours. Data analysis was carried out using IGASorp Systems Software v 6.50.55. The sample was recovered after completion of the isotherm and re-analyzed by XRPD.
In other cases, sorption isotherms were also obtained using a SMS DVS Intrinsic moisture sorption analyser, controlled by DVS Intrinsic Control software v1.0.1.2 (or v 1.0.1.3). The sample temperature was maintained at 25° C. by the instrument controls. The humidity was controlled by mixing streams of dry and wet nitrogen, with a total flow rate of 200 ml/min. The relative humidity was measured by a calibrated Rotronic probe (dynamic range of 1.0-100% RH), located near the sample. The weight change, (mass relaxation) of the sample as a function of % RH was constantly monitored by the microbalance (accuracy ±0.005 mg).
5-20 mg of sample was placed in a tared mesh stainless steel basket under ambient conditions. The sample was loaded and unloaded at 40% RH and 25° C. (typical room conditions). A moisture sorption isotherm was performed as outlined in Table 2 below (2 scans giving 1 complete cycle). The standard isotherm was performed at 25° C. at 10% RH intervals over a 0-90% RH range. Data analysis was carried out using Microsoft Excel using DVS Analysis Suite v6.2 (or 6.1 or 6.0). The sample was recovered after completion of the isotherm and re-analyzed by XRPD.

[3] = PK study in pentagastrin- or famotidine-pretreated dogs, oral tablets; settings: famotidine-pretreated dogs, tablet
[4] = Intrinsic dissolution rate, rotating disk apparatus; format: physicochemical
Experimental: Intrinsic dissolution rate experiments were conducted using a rotating disk apparatus. Disks of drug substance were prepared by directly compressing 100 mg of powder of polymorph Form 3 in a die at a pressure of 2500 psi for 2 minutes using a hydraulic press (Carver Press, Fred Carver, NJ, USA). The exposed surface area for the resulting disk was 0.5 cm^2. A regular USP dissolution apparatus maintained at 37±0.5° C. was used for the dissolution study. Each dissolution vessel contained 500 mL of aqueous dissolution medium of 0.05 N HCl or pH 6.8 20 mM phosphate buffer with 1% cetyltrimetrylammonium bromide (CTAB). The disk holder (die) was half-immersed into the dissolution medium and rotated at 100 rpm. Samples were withdrawn at specified time intervals and analyzed by HPLC.
The dissolution rate (J) of solid per unit surface area may be described by a diffusion model:
Where D is the diffusion coefficient of the solute, h is the diffusion layer thickness during dissolution at the surface of solid, Cs is the saturation solubility of the solid in the dissolution medium, and Cb is its concentration in the bulk medium. Under sink condition (Cs>>Cb) Equation 2 is reduced to: […]
where dissolution rate is directly proportional to the saturated solubility.

[5] = DVS, 25° C., listed as Polymorph Form 3
[6] = DVS, 25° C., listed as Polymorph Form 7

## c1cn2cc(-c3ccc4cn[nH]c4c3)nc(Nc3ccc(N4CCOCC4)cc3)c2n1 [polymorph Form 3]
Solubility in water
  Solubility in water: >100 mg/mL
Solubility in water; final pH of the water solubility sample
  final pH: (final pH < 1.5)
[1]; DVS, 25° C.
  hygroscopicity: not observed to be hygroscopic
[1]; [5]
  hygroscopicity: not observed to be hygroscopic at 70% RH and below
  water adsorption / weight gain at 90% RH: ~28%
[1]; sample collected at end of DVS
  solid form after DVS experiment (XRPD): converted to Form 7
[2]; listed as Form 3
  water uptake up to 90% RH: ~20 wt. %
[2]; sample after DVS analysis
  solid form after DVS analysis (XRPD): converted to Form 7
[2]
  hygroscopicity: not hygroscopic
[2]; listed as Polymorph Form 3
  hygroscopicity: not observed to be hygroscopic at 70% RH and below
[3]
  increase of AUC0-24 compared to the mono-MSA salt formulation: more than 10 fold
[4]; pH 6.8
  IDR higher than mono MSA: 400 fold
[4]; pH 6.8, rotating disk, 37° C., 100 rpm
  Intrinsic dissolution rate in pH 6.8 20 mM phosphate with 1% CTAB: 1.2 mg/min/cm^2

## c1cn2cc(-c3ccc4cn[nH]c4c3)nc(Nc3ccc(N4CCOCC4)cc3)c2n1 [polymorph Form 7]
[1]; [6]
  hygroscopicity: highly hygroscopic
  water adsorption / weight gain at 90% RH: ~22%
[1]; DVS, 25° C., 40% RH
  weight gain at 40% RH: ~10%
[2]; listed as Polymorph Form 7
  water uptake up to 90% RH: ~21 wt. %
  hygroscopicity: highly hygroscopic
[2]; below 30% RH
  solid form below the stable RH interval: becomes amorphous
[2]; room temperature
  RH interval in which the form is stable: 30-60 % RH

## c1cn2cc(-c3ccc4cn[nH]c4c3)nc(Nc3ccc(N4CCOCC4)cc3)c2n1 [Free Base, Compound of Formula I]
Solubility in water
  Solubility in water: <0.00005 mg/mL
[4]; pH 1.3, rotating disk, 37° C., 100 rpm
  Intrinsic dissolution rate in pH 1.3 0.05N HCl with 0.9% NaCl: 0.00046 mg/min/cm^2
[4]; pH 6.8, rotating disk, 37° C., 100 rpm, listed as free base of Formula I
  Intrinsic dissolution rate in pH 6.8 20 mM phosphate with 1% CTAB: no free base was detectable
